Measured values: paper PMC6639268 (Journal of Virology, 2019)
Where two headings read alike, the source gives them in different places.

Key:
[1] = system: EBOV trVLP; assay: microbe, parasite or virus in culture; details: Zaire ebolavirus, HEK-293T, read-out: IC50, trVLP
[2] = system: VSV (HIV-1/VSV-G) pseudotyped virus; format: cell-based, vesicular stomatitis virus
[3] = system: EBOV trVLP
[4] = in vitro; details: human
[5] = system: 293T cells; details: for Cytotoxicity in single-concentration screen: 25 μM; for CC50: human
[6] = system: EBOV (HIV-1/EBOV-GP) pseudotyped virus; assay: microbe, parasite or virus in culture; details: Zaire ebolavirus, HEK-293T
[7] = in vitro; details: human, CC50, Pseudotyped
[8] = system: EBOV (HIV-1/EBOV-GP) pseudotyped virus; details: for IC50: read-out: IC50, Pseudotyped (no detergent)
[9] = system: steroidogenic acute regulatory protein; details: cited from earlier work
[10] = system: EBOV-pseudotyped virus; format: cell-based, Zaire ebolavirus
[11] = read-out: IC50, Pseudotyped (no detergent)

Row | SMILES | IC50 [1] [µM] | Inhibitory activity against VSV-G-pseudotyped virus entry [2] | SI (CC50/IC50), trVLP [3] | CC50 [4] [µM] | Impact on cell viability (cytotoxicity curves) [5] | IC50 [6, 11] [µM] | IC50 ([6]; read-out: IC50 with Tween 80) [µM] | CC50 [7] [µM] | SI (CC50/IC50), Pseudotyped [8] | IC50 [8] [µM] | Activity on steroidogenic acute regulatory protein [9] | Normalized luciferase signal (infectivity signal per cell as a fraction of the maximum) [8] | Cytotoxicity in single-concentration screen [5] | CC50 [5] [µM] | IC50 ([3]; read-out: IC50, trVLP) [µM] | Time point up to which maximum inhibition occurred [10] [min]
1 | CN1CCCC(CNC(=O)c2cc(NCc3ccccc3F)cc(S(=O)(=O)CNC(C)(C)C)c2)C1 (stereo not drawn) [Compound S58] | 4.08 ± 0.88 | least average inhibitory activity against VSV-G | 25.8 | 105 ± 57.1 | minimal impact on cell viability | 19.5 ± 18.9 | 40.5 ± 24.4 | – | – | – | – | – | – | – | – | –
2 | CC(C)N[C@H]1C[C@@H](C(=O)CN2CCN(c3cccc(C(F)(F)F)c3)CC2)N(Cc2ccccc2)C1 [Compound S33] | 3.06 | – | 5.7 | 17.5 | – | < 10 | 8.12 ± 2.37 | 29 ± 12.4 | 5.0 | 5.85 ± 5.2 | – | – | – | – | – | –
3 | Cc1ccc(C(=O)N/C(=C/c2ccc(-c3ccc(Br)cc3)o2)C(=O)NCCCN(C)C)cc1 [Compound I01] | 1.1 ± 0.99 | – | 8.8 | 9.72 ± 3.23 | – | – | 2.48 ± 1.35 | 11 to 15 | 8.2 | – | nonspecific inhibitor | most activity | most cytotoxic | 14.6 ± 5.86 | – | –
4 | COc1ccc(OC)c(CN2CCC[C@@H](c3ccnc(SCCN4CCCC4)n3)C2)c1 [Compound S36] | 3.19 | – | 5.2 | 16.5 | – | < 10 | 4.83 ± 1.11 | 66.9 ± 33.3 | 10.6 | 6.29 ± 1.55 | – | – | – | – | – | –
5 | COc1ccc(CNCc2cc(F)cc(F)c2)cc1OC[C@H](O)CN1CCN(C)CC1 [Compound S29] | > 20 | least average inhibitory activity against VSV-G | 2.9 | 75.1 ± 24.4 | – | ~26 | 5.03 ± 3.62 | 113 ± 82.2 | 4.4 | 25.7 ± 9 | – | – | – | – | 26.3 ± 17.1 | –
6 | CCN1CCC[C@@H]1CN(CC1CCN(COC)CC1)C(=O)CCc1ccc(F)cc1 [Compound S42] | 11.1 ± 12.9 | – | 11.2 | 124 ± 71.2 | minimal impact on cell viability | 11.6 ± 9.95 | 36.5 ± 16.6 | – | – | – | – | – | – | – | – | –
7 | CN(Cc1cccc(OCCN2CCN(S(=O)(=O)C3CCCCC3Cl)CC2)c1)CC1CCC(=O)N1 (stereo not drawn) [Compound I53] | 13.6 ± 12.2 | – | 3.5 | 47.5 ± 31.8 | – | 36.7 | 35.3 | 110 ± 58 | 3.0 | – | – | – | – | – | – | –
8 | CNC1CCN(c2nc3cc(OC)ccc3cc2CNCCc2ccc(OC)cc2)CC1 [Compound S49] | 3.81 ± 3.16 | – | 5.9 | 22.4 | – | < 10 | 17.8 ± 10.6 | 66.6 ± 34 | – | 5.06 | – | – | – | – | – | –
9 | CCOC(=O)[C@H]1O[C@@H]1C(=O)N[C@@H](CC(C)C)C(=O)NCCC(C)C [Compound E64d, E64d] | – | – | – | – | – | – | – | – | – | – | – | – | – | – | – | ≤ 80
10 | CN(C)[C@@H]1CCN(CC(c2ccccc2)c2ccccc2)C[C@@H]1CCC(=O)NCc1ccc2c(c1)OCO2 [Compound S31] | 2.41 | least average inhibitory activity against VSV-G | 11.1 | 26.7 | – | < 5 | 4.68 ± 0.36 | 42.4 ± 15.4 | 8.9 | 4.77 | – | – | – | – | – | –
11 | CCOc1ccc([C@@H](O)Cn2c(=N)n(CCN3CCCCC3)c3ccccc32)cc1 [Compound S03] | 4.04 | – | 14.3 | 57.6 ± 24.2 | – | < 10 | 5.21 | 80 ± 45.5 | – | 5.79 ± 6.7 | – | – | – | – | – | –
12 | COc1ccc(CN2CCOc3cc(O[C@H]4CCCN(C)C4)cc(-c4ccc(C)s4)c3C2)c(O)c1 [Compound I49] | 2.67 ± 1.49 | least average inhibitory activity against VSV-G | – | – | – | < 5 | 3.12 ± 0.68 | 11 to 15 | 3.8 | 2.91 ± 0.63 | – | most activity | most cytotoxic | 11 ± 6.46 | – | –
